Patent US6379882B1, “Method for selecting compounds for treating ischemia-related cellular damage” (Elan Pharmaceuticals, Inc., priority 1998, dated 2002)
Entries after “also recorded” stand apart in the source; their conditions may differ. Where two headings read alike, the source gives them in different places.

Experiments:
[1] = tested on: cortical neuronal cells; conditions: cited from earlier work
[2] = tested on: retinal ganglion cells; type: cell-based, rat
[3] = tested on: NMDA receptor; conditions: whole cell recordings; Chen et al. 1998; cited from earlier work
[4] = tested on: isolated retinas of chick embryos; conditions: LDH release and histological assessment; Chen et al. 1998; cited from earlier work
[5] = tested on: retinal ganglion cells; conditions: literature; cited from earlier work
[6] = tested on: retinal ganglion cells; conditions: Lagreze et al. 1998, cited from earlier work
[7] = tested on: rat neocortical tissue slices; conditions: Evans et al. 1982; Kral et al. 1993; cited from earlier work
[8] = co-exposure to 1.0 mM, about 24 hours, Yamamoto and Tang 1998

NC(CCCCCP(=O)(O)O)C(=O)O (racemic) [AP-7]
increase of extracellular LDH and neuronal disintegration by potassium cyanide and NMDA [1]: partially prevented
protection of oxygen/glucose-deprived RGCs from apoptotic cell death (in words) [2]: demonstrated biological activity in protecting oxygen/glucose-deprived RGCs from apoptotic cell death

Cc1ccc(Cl)c(Nc2ccccc2C(=O)O)c1Cl [meclofenamic acid]
NMDA receptor mediated currents [3]: inhibited NMDA receptor mediated currents
protective effect on neurons under ischemic or excitotoxic conditions [4]: protective effect
protection of oxygen/glucose-deprived RGCs from apoptotic cell death (in words) [2]: to a lesser extent; also recorded: Less efficacy

COc1ccc2[nH]cc(CCNC(C)=O)c2c1 [melatonin]
increase of extracellular LDH and neuronal disintegration by potassium cyanide and NMDA [1, 8]: partially prevented

CC12CC3CC(C)(C1)CC(N)(C3)C2 [memantine]
prevention of NMDA receptor-mediated death of retinal ganglion cells in vivo [5]: prevent NMDA receptor-mediated death of retinal ganglion cells in vivo
prevention of NMDA receptor-mediated death of retinal ganglion cells (in words) [6]: prevent NMDA receptor-mediated death of retinal ganglion cells
increase in the number of surviving retinal ganglion cells ([6]; administered before retinal ischemia): ~30%
increase in the number of surviving retinal ganglion cells ([6]; administered within 30 minutes of retinal ischemia): ~20%

O=C(O)c1cc(=O)c2ccccc2[nH]1 [kynurenic acid]
prevention of NMDA receptor-mediated death of retinal ganglion cells in vivo [5]: prevent NMDA receptor-mediated death of retinal ganglion cells in vivo

O=C(O)c1ccccc1Nc1cccc(C(F)(F)F)c1 [flufenamic acid]
NMDA receptor mediated currents [3]: inhibited NMDA receptor mediated currents
protective effect on neurons under ischemic or excitotoxic conditions [4]: protective effect
protection of oxygen/glucose-deprived RGCs from apoptotic cell death (in words) [2]: demonstrated biological activity in protecting oxygen/glucose-deprived RGCs from apoptotic cell death

NC(CCCP(=O)(O)O)C(=O)O (racemic) [AP-5, DL-2-amino-5-phosphonovaleric acid]
protective effect in neocortical tissue slices [7]: protective effect
protection of oxygen/glucose-deprived RGCs from apoptotic cell death (in words) [2]: demonstrated biological activity in protecting oxygen/glucose-deprived RGCs from apoptotic cell death

NC(CCCCCP(=O)(O)O)C(=O)O (stereo not drawn)
prevention of NMDA receptor-mediated death of retinal ganglion cells in vivo [5]: prevent NMDA receptor-mediated death of retinal ganglion cells in vivo

N=C(NCCC[C@H](N)C(=O)O)N[N+](=O)[O-] [N^G-nitro-L-arginine]
increase of extracellular LDH and neuronal disintegration by potassium cyanide and NMDA [1, 8]: partially prevented

Cc1cccc(Nc2ccccc2C(=O)O)c1C [mefenamic acid]
NMDA receptor mediated currents [3]: inhibited NMDA receptor mediated currents
protective effect on neurons under ischemic or excitotoxic conditions [4]: protective effect
protection of oxygen/glucose-deprived RGCs from apoptotic cell death (in words) [2]: to a lesser extent; also recorded: Less efficacy
